Reference: patent US3971737A, “[2-Methyl-Ala^6 ]LRH” (American Home Products Corporation, priority 1975, dated 1976)
Where “and” joins values, the source holds several entries; their conditions need not be identical. Equal entries are not always repeated. Entries after “also recorded” stand apart in the source; their conditions may differ.

Assays:
[1] = test system: Sprague-Dawley rats (pregnancy); conditions: found by Alan Corbin (copending application Ser. No. 561,524), cited from earlier work
[2] = test system: luteinizing hormone (LH) in the blood serum of ovariectomized rats; assay: LH release in ovariectomized rats pretreated with estradiol and progesterone; serum LH by radioimmunoassay; format: in vivo, rat
Description: This fact was established, in vivo, by measuring the increase of LH (before and after administration of [2-methyl-Ala^6 ]LRH) in the blood serum of ovariectomized rats pretreated with estradiol and progesterone according to the procedure of Schally et al., J. Biol. Chem. 246, 7230 (1971). The LH concentration in the blood serum was determined by radioimmunoassy according to the procedure of Berson et al., Metabolism 13, 1135 (1964). The results of this test are as follows: Dose nanograms ng LH/ml Serum % Dif- (ng) Animal No. Pre Post erence ______________________________________ 10 1 404.92 932.87 […] 10 2 541.37 1062.03 96.17 10 3 441.25 1568.03 255.43 10 4 459.07 1082.72 135.85 10 5 759.11 1681.84 111.52 No. of observations 5 5 5 Mean 523.34 1265.56 145.87 Standard error 70.34 150.08 28.28 T-value 5.1586 P-value 0.0080 ______________________________________

CC(C)C[C@H](NC(=O)C(C)(C)NC(=O)[C@H](Cc1ccc(O)cc1)NC(=O)[C@H](CO)NC(=O)[C@H](Cc1c[nH]c2ccccc12)NC(=O)[C@H](Cc1c[nH]cn1)NC(=O)[C@@H]1CCC(=O)N1)C(=O)N[C@@H](CCCNC(=N)N)C(=O)N1CCC[C@H]1C(=O)NCC(N)=O [[2-methyl-Ala^6]LRH, L-(5-oxoprolyl)-L-histidyl-L-tryptophyl-L-seryl-L-tyrosyl-2-methylalanyl-L-leucyl-L-arginyl-L-prolylglycinamide]
pregnancies prevented ([1]; 500 micrograms per day): 100%
claudogenic/interceptive activity (in words) [1]: active claudogenic/interceptive agent
ng LH/ml Serum, Post (Mean) ([2]; dose 10 ng, mean of 5 ovariectomized, estradiol/progesterone-pretreated rats, after administration (pre mean 523.34), standard error 150.08): 1265.56 ng LH/ml
% Difference of serum LH, pre vs post (Mean) ([2]; dose 10 ng, mean of 5 rats, standard error 28.28, P-value 0.0080): 145.87%
% Difference of serum LH, pre vs post (individual animals No. 1-5) ([2]; dose 10 ng, single animals 1 to 5 in order): 255.43% and 135.85% and 111.52% and 103.38% and 96.17%
ng LH/ml Serum, Post (individual animals No. 1-5) ([2]; dose 10 ng, single animals 1 to 5 in order, after administration): 932.87 ng LH/ml and 1062.03 ng LH/ml and 1568.03 ng LH/ml and 1082.72 ng LH/ml and 1681.84 ng LH/ml
LH-releasing / LRH agonist activity (in words) ([2]; in vivo, ovariectomized rats pretreated with estradiol and progesterone): active releaser of luteinizing hormone (LH); also recorded: active LRH agonist
